How the values were obtained:
MDA-MB-231 cells = test: Cell invasion assay (Boyden chamber Matrigel); format: cell-based, human; conditions: 1 μM pre-treatment 24 h, 20 h migration
Experimental: FIG. 12. YK5 affects the major hallmarks of cancer: inhibits proliferation and invasiveness and arrests cancer cells in the cell cycle. (a) The indicated cancer cells were incubated with increasing concentrations of inhibitors and growth over 72 h was assessed. Y-axis values below 0% represent cell death of the starting population. Drugs were assayed in triplicate. (b) Mice (n=5) bearing MDA-MB-468 subcutaneously (s.c.) xenografted tumors that reached a volume of approximately 100-200 mm^3, were administered i.t. YK5 or vehicle as described in Methods. Tumor volume (mm^3) was estimated from caliper measurements. (c) Cells were treated for 24 h with indicated concentrations of YK5. DNA content was analyzed by propidium iodide staining and flow cytometry (left), whereas proteins by western blotting (right). (d) Hsp70 client proteins isolated by YK55-beads from SKBr3 and MDA-MB-468 extracts (500 μg) were analyzed by western blotting. […] (e) MDA-MB-231 breast cancer cells were treated for 24 h with YK5 (1 μM) and protein extracts were subjected to immunoblotting (upper) or pre-treated for 24 h with vehicle or YK5, and viable cells able to migrate through Matrigel over a 20 h period were quantified and data graphed (lower). […]
Cell Invasion Assay. […] In summary, cells were stained with tryptan blue and counted manually with a hemacytometer. […] Cells in ten fields per membrane were counted at ×100 objective.

[1] = system: PBLs, CCD18Co and MRC-5 normal cells; test: Cytotoxicity in normal cells; format: cell-based
Experimental: FIG. 14. YK5 has a higher affinity for tumor Hsp70s and selectively kills cancer cells. (a-c) Cells were treated with the indicated concentrations of inhibitors for the times presented, and metabolically viable cells by Alamar blue uptake as described in Methods (a). Molecular markers of apoptosis (PARP and caspase-3 cleavage) were analyzed in cells treated for 24 h with indicated concentrations of inhibitors, by western blotting (b, c). Morphology of cells treated for 24 h with vehicle or the indicated inhibitors was analyzed by light microscopy (c). […]
Because Hsp70 assists in house-keeping functions of normal cells, such as folding of newly synthesized polypeptides, refolding of misfolded proteins, and translocation of proteins through biological membranes, it remains unclear whether pharmacologic interventions which target both Hsp70 and Hsc70 isoforms, such as YK5, are non-toxic to these cells. To address this matter, the cytotoxic effect of YK5 in a panel of normal cells was evaluated, namely peripheral blood leukocytes (PBLs) obtained from healthy blood donors, and cultured normal fibroblasts, such as the colon cells CCD18Co and the lung MRC-5 (FIG. 14a-c). […]
Growth Inhibition Assay. Antiproliferative effects of inhibitors were evaluated using the dye Alamar blue. […]

C=CC(=O)Nc1cc(N)nc(Sc2c(OC)nc(N3CCN(C)CC3)nc2OC)n1 [YK5, N-(6-amino-2-(4,6-dimethoxy-2-(4-methylpiperazin-1-yl)pyrimidin-5-ylthio)pyrimidin-4-yl)acrylamide]
invasion through Matrigel (MDA-MB-231 cells): inhibited the ability of MDA-MB-231 cells to invade through Matrigel | cell death in normal cells [1]: minimal

Reference: patent US9567318B2, “Substituted pyrimidine compounds and uses thereof” (Memorial Sloan-Kettering Cancer Center, priority 2009, dated 2017)
